Measurements published in paper PMC6534582 (Nature Communications, 2019).
No end group written: not given here.

What was measured:
[1] = system: Jmjd3 mRNA in Mof^f/f;Cre-ER brown preadipocytes; assay: qRT-PCR of Jmjd3 mRNA (control gene); type: cell-based, mouse
Method: (§1) Mof^f/f mice were crossed with Cre-ER (Jackson no. 008463) to generate Mof^f/f;Cre-ER mice[10]. Primary brown preadipocytes were isolated from interscapular brown adipose tissue of newborn (P0) Mof^f/f;Cre-ER pups and immortalized by SV40T[38]. All mouse experiments were performed in accordance with the NIH Guide for the Care and Use of Laboratory Animals and approved by the Animal Care and Use Committee of NIDDK, NIH. For rescue experiment by ectopic expression of rat MOF, immortalized Mof^f/f;Cre-ER preadipocytes stably expressing WT or K274R MOF were established using lentivirus-mediated gene transfer. Briefly, 293FT lentiviral packaging cells were transfected with pLenti-CMV plasmids expressing MYC-tagged WT or K274R rat MOF. Preadipocytes were infected with those lentivirus-containing media, followed by puromycin selection for two passages. Those expressing MYC-tagged rat MOF were confirmed by western blot.
(§2) Western blot of histone modifications using acid extracts or of nuclear proteins using nuclear extracts were done as described[45],[46]. Total RNA was extracted using TRIzol (Invitrogen) and reverse transcribed using the ProtoScript II First-Strand cDNA Synthesis Kit (NEB), following the manufacturers’ instructions. qRT-PCR was done using the following SYBR green primers: Mof (forward, 5’–[…]–3’, and reverse, 5’–[…]–3’). qPCR was done using Luna® Universal qPCR Master Mix according to the manufacturers’ instructions (NEB). To detect truncated Mof transcripts after 4-OHT treatment (2 µM), RT-PCR was performed as described.

[2] = system: Mof^f/f;Cre-ER brown preadipocytes; assay: Growth rate of Mof KO cells; type: cell-based, mouse; details: for growth rate of Mof KO cells: 4OHT
Method: as §1

[3] = system: Mof mRNA in Mof^f/f;Cre-ER brown preadipocytes; assay: qRT-PCR of Mof mRNA; type: cell-based, mouse
Method: as §1, §2

MLL4-PHD6 = assay: 1H,15N HSQC of linked H4-G7-MLL4-PHD6 construct; type: binding, human
Method: (§3) The PHD6 domain of human MLL4 (aa 1503–1562) was cloned into a pCool vector. […] The human MLL3 PHD7 domain (aa 1083–1143) was cloned into a pGEX-6p vector. All constructs were expressed in Rosetta2 (DE3) pLysS cells. Protein production was induced with 0.5 mM IPTG overnight at 16̊ °C in Luria broth (LB) or minimal media (M9) supplemented with ^15NH4Cl and 0.06 mM ZnCl2 or ^15NH4Cl, ^13C-glucose, and 0.06 mM ZnCl2. The GST-tagged PHD proteins were purified on glutathione Sepharose 4B beads (GE Healthcare) in 50 mM Tris-HCl (pH 7.5) buffer, supplemented with 250 mM NaCl and 2 mM dithiothreitol (DTT). The GST tag was cleaved with Thrombin or TEV protease overnight at 4 °̊C. Unlabeled proteins were further purified by size exclusion chromatography and concentrated in Millipore concentrators. All mutants were generated by site-directed mutagenesis using the Stratagene QuikChange mutagenesis protocol, grown, and purified as WT proteins.
(§4) For NMR titration experiments, ^1H,^15N HSQC spectra of 0.15 mM uniformly ^15N-labeled WT or mutated MLL4-PHD6 were recorded while peptides (synthesized by SynPeptide) were added stepwise. All experiments were carried out in phosphate-buffered saline buffer (pH 6.5).

[4] = system: MLL4-PHD6 (aa 1503–1562), wild-type; assay: 1H,15N HSQC NMR titration of WT MLL4-PHD6; type: binding, human; details: for chemical shift perturbations (CSPs): 1H,15N HSQC titration, 0.15 mM 15N-labeled MLL4-PHD6, PBS pH 6.5, 298 K
Method: as §3
NMR samples for structure determination were prepared in 20 mM Tris-HCl (pH 7.0) buffer, supplemented with 100 mM NaCl, 5 mM DTT, and 8% D2O. […] 3D ^15N-/^13C-filtered ^13C- and ^15N-edited NOESY-HSQC spectra (mixing time of 150 ms) were collected to obtain intermolecular distance restraints.
as §4

[5] = biological target: T1, PHD6 finger of MLL4 (MLL4-PHD6, aa 1503–1562), wild type (human, UniProt O14686 1503-1562); assay: NMR structure; solution structure; 2.5 mM 13C/15N-labeled MLL4-PHD6 and 7.5 mM H4K16ac (11–21) peptide; 20 mM Tris-HCl pH 7.0, 100 mM NaCl, 5 mM DTT, 8% D2O; 298 K; details: both partners purified
T1 construct: human MLL4 (KMT2D), PHD6 finger, aa 1503-1562; cloned into a pCool vector; 15N- or 13C/15N-labelled for NMR; also called MLL4-PHD6_(1503–1562); PHD6 domain of human MLL4; source: E. coli Rosetta2 (DE3) pLysS, purified (glutathione Sepharose, GST cleaved, SEC for unlabeled protein)

[6] = biological target: T1, PHD6 finger of MLL4 (MLL4-PHD6, aa …); assay: NMR titration; 1H,15N HSQC of 0.15 mM uniformly 15N-labeled PHD finger (WT or mutated), peptides added stepwise; phosphate-buffered saline pH 6.5; 298 K; details: both partners purified
[7] = biological target: T2, PHD6 finger of human MLL4 (aa 1503-1562) (human, UniProt O14686 1503-1562); assay: NMR titration; 1H,15N HSQC spectra of 0.15 mM uniformly 15N-labelled MLL4-PHD6 while peptide was added stepwise up to a protein:peptide molar ratio of 1:5; phosphate-buffered saline pH 6.5; 298 K; details: both partners purified
T2 construct: PHD6 finger of human MLL4 (KMT2D), aa 1503-1562, cloned into a pCool vector; Uniformly 15N-labelled for the titrations at 0.15 mM; also called MLL4-PHD6; MLL4-PHD6 1503-1562; source: Rosetta2 (DE3) pLysS cells, purified (glutathione Sepharose 4B; GST tag cleaved)

[8] = biological target: T3, MLL4-PHD6 part of the linked H4-G7-MLL4-PHD6 construct (human, UniProt O14686 1503-1562); assay: NMR, 1H,15N HSQC spectra of a linked construct compared with free and peptide-bound PHD6; H4 (11–23) joined to MLL4-PHD6 on one chain through a hepta-glycine linker; wild type and H4 mutants; details: both partners purified
T3 construct: human MLL4 (KMT2D), PHD6 finger; aa 1503-1562 by the methods, 1503-1560 by the results; in the assay joined at its N-terminus through GGGGGGG to H4 residues 11-23 (m15 or its mutants) on one chain; also called H4_(11–23)-G7-PHD6 (PHD6 part); source: E. coli Rosetta2 (DE3) pLysS, purified

[9] = biological target: T2, PHD6 finger of human MLL4 (aa 1503-1562); assay: NMR titration; 1H,15N HSQC spectra of 2.5 mM 13C/15N-labelled MLL4-PHD6 upon titration with H4K16ac (11-21) peptide at protein:ligand 1:0, 1:2, 1:3; 20 mM Tris-HCl pH 7.0, 100 mM NaCl, 5 mM DTT, 8% D2O; 298 K; details: both partners purified
[10] = 4OHT-treated, technical replicate 1
[11] = 4OHT-treated, technical replicate 2
[12] = after two rounds of 4OHT treatment

T1 sequence (O14686 1503-1562): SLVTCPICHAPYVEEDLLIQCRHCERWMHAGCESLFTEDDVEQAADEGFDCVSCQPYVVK
T2 sequence (O14686 1503-1562): as above
T3 sequence (O14686 1503-1562): as above

Molecule: CC/C(=C(\c1ccc(O)cc1)c1ccc(OCCN(C)C)cc1)c1ccccc1 [4OHT, 4-hydroxytamoxifen]
- relative Jmjd3 mRNA level ([1]; 4OHT-treated Mof^f/f;Cre-ER preadipocytes, average of two technical replicates, Mock average 1.00005, STDEV in own column): 0.8326
- relative Jmjd3 mRNA level [1, 10]: 0.841
- relative Jmjd3 mRNA level [1, 11]: 0.8241
- mRNA of control gene Jmjd3 [1, 12]: unaffected
- growth rate of Mof KO cells ([2]; D1, average of two replicates (D0 = 1; Mock 3.715)): 2.81
- growth rate of Mof KO cells ([2]; D1, replicate 1 (Mock 3.89)): 2.98
- growth rate of Mof KO cells ([2]; D1, replicate 2 (Mock 3.54)): 2.64
- growth rate of Mof KO cells ([2]; D2, average of two replicates (D0 = 1; Mock 6.365)): 4.725
- growth rate of Mof KO cells ([2]; D2, replicate 1 (Mock 5.82)): 4.59
- growth rate of Mof KO cells ([2]; D2, replicate 2 (Mock 6.91)): 4.86
- growth rate of Mof KO cells ([2]; D3, average of two replicates (D0 = 1; Mock 10.695)): 7.02
- growth rate of Mof KO cells ([2]; D3, replicate 1 (Mock 9.81)): 6.59
- growth rate of Mof KO cells ([2]; D3, replicate 2 (Mock 11.58)): 7.45
- growth rate of Mof KO cells ([2]; D4, average of two replicates (D0 = 1; Mock 17.965)): 12
- growth rate of Mof KO cells ([2]; D4, replicate 1 (Mock 16.98)): 12.54
- growth rate of Mof KO cells ([2]; D4, replicate 2 (Mock 18.95)): 11.46
- growth rate of Mof KO cells ([2]; D5, average of two replicates (D0 = 1; Mock 25.18)): 15.215
- growth rate of Mof KO cells ([2]; D5, replicate 1 (Mock 26.41)): 14.49
- growth rate of Mof KO cells ([2]; D5, replicate 2 (Mock 23.95)): 15.94
- growth, 4OHT average relative to Mock ([2]; D4): 66.7965
- growth, 4OHT average relative to Mock ([2]; D5): 60.4249
- relative Mof mRNA level ([3]; 4OHT-treated Mof^f/f;Cre-ER preadipocytes, average of two technical replicates, single experiment, Mock average 1.00268, STDEV in own column): 0.1967
- relative Mof mRNA level [3, 10]: 0.2148
- relative Mof mRNA level [3, 11]: 0.1786
- mRNA level of Mof [3, 12]: significantly decreased

Molecule: linked H4-MLL4-PHD6 construct: aa 11–23 of H4, hepta-glycine (GGGGGGG) linker, aa 1503–1562 of MLL4-PHD6
- spectral changes on mutation (MLL4-PHD6; H4K12 mutated to alanine in linked construct): only small spectral changes
- spectral changes on mutation (MLL4-PHD6; H4K23 mutated to alanine in linked construct): only small spectral changes
- binding of the H4 region in linked construct (MLL4-PHD6; H4 aa 11–23, hepta-glycine linker, MLL4-PHD6, no mutation): tightly bound to the protein
- complex formation on mutation (MLL4-PHD6; K16 and R17 of H4 mutated to alanine in linked construct): disrupted formation of the complex

Molecule: H4_1–9: H4 peptide (residues 1–9 of H4) (SGRGKGGKG)
- chemical shift perturbations (CSPs) [4]: no chemical shift perturbations

Molecule: H4_12–23: peptide encompassing residues 12–23 of H4 (KGGAKRHRKVLR)
- chemical shift perturbations (CSPs) [4]: CSPs similar in directions to CSPs induced by the longer H4_1–23 peptide

Molecule: H4K16ac (11–21): H4K16ac peptide (residues 11–21) used for NMR structure; 15N/13C-labeled form synthesized by Bio-Synthesis
- saturation of MLL4-PHD6 by 3-fold excess of peptide ([4]; 7.5 mM H4K16ac (11–21) with 2.5 mM 13C/15N-labeled MLL4-PHD6, 20 mM Tris-HCl pH 7.0, 100 mM NaCl, 5 mM DTT, 8% D2O, 298 K, 1H,15N HSQC and 1H,13C HSQC): almost saturated

Molecule: H4_8–25: peptide encompassing residues 8–25 of H4 (KGLGKGGAKRHRKVLRDN)
- chemical shift perturbations (CSPs) [4]: CSPs similar in directions to CSPs induced by the longer H4_1–23 peptide

Molecule: CC(=O)NCCCC[C@H](N)C(=O)O [Kac]
- chemical shift perturbations (CSPs) [4]: failed to induce CSPs

B1: histone H4K16ac peptide, residues 11–21 (peptide, UniProt P62805 12-22, looked up)
peptide: GKGGAK(Ac)RHRKV
notes: histone H4, residues 11-21, acetylated at K16; a 15N/13C-labelled copy (Bio-Synthesis) was used to validate assignments; in the structure calculation only G13GAKacRH18 was used, with N-terminal acetyl and C-terminal N-Me amide caps; also called H4K16ac (11–21) peptide; source: synthetic peptide
- binding result [5]: binds

B2: histone H4 peptide, residues 12–23 (peptide, UniProt P62805 13-24, looked up)
peptide: KGGAKRHRKVLR
notes: histone H4, residues 12-23; also called H4_(12–23); source: synthetic peptide (SynPeptide)
- binding result [6]: binds

B3: histone H4 (8-25) peptide (peptide, UniProt P62805 9-26, looked up)
peptide: KGLGKGGAKRHRKVLRDN
notes: histone H4, residues 8-25, unmodified; source: synthetic peptide (SynPeptide)
- binding result [7]: binds

B4: histone H4 peptide, residues 8–25 (peptide, UniProt P62805 9-26, looked up)
peptide: KGLGKGGAKRHRKVLRDN
notes: histone H4, residues 8-25; source: synthetic peptide (SynPeptide)
- binding result [6]: binds

B5: H4 (residues 11–23) part of the linked H4-G7-MLL4-PHD6 construct, wild type (domain or fragment, UniProt P62805 12-24, looked up)
chain: GKGGAKRHRKVLR
notes: histone H4, residues 11-23; in the assay this stretch stood on ONE chain with m16: H4 11-23, hepta-glycine linker GGGGGGG, MLL4-PHD6; cloned into pDEST-15; also called H4_(11–23)-G7-PHD6 (H4 part); linked H4-MLL4-PHD6 construct; source: E. coli Rosetta2 (DE3) pLysS, purified
- binding result [8]: binds

B6: H4 (residues 11–23) K12A part of the linked H4-G7-MLL4-PHD6 construct (domain or fragment, UniProt P62805 12-24, looked up)
chain: GAGGAKRHRKVLR
notes: histone H4, residues 11-23, K12A; on one chain with m16 through a GGGGGGG linker; also called H4K12 to alanine in the linked construct; source: E. coli Rosetta2 (DE3) pLysS, purified as WT protein
- binding result [8]: binds

B7: histone H4K16ac (11-21) peptide (peptide, UniProt P62805 12-22, looked up)
peptide: GKGGAK(Ac)RHRKV
notes: histone H4, residues 11-21, acetylated at K16; source: synthetic peptide
- binding result [9]: binds
